Test results from patent publication EP0121352A1, “A leader sequence to promote the secretion of gene products” (priority 1983, dated 1984).

Assays:
[1] = target: Carboxypeptidase G2 (CPG2) from Pseudomonas strain RS-16 (Pseudomonas sp., UniProt P06621); settings: read-out: Km vallues using methotrexate as substrate
Procedure: (§1) CPG2 activity was determined after J L McCullough et al, J.Biol.Chem, 1971, 246, 7207. A.lml reaction cuvette containing 0.9 ml of 0.1 M Tris-HCl, pH 7.3 plus 0.2 mM ZnSO4 and 0.1 ml of 0.6 mM methotrexate was equilibrated at 37°C. Enzyme extract was added to the test cuvette and the decrease in absorbance at 320 nm measured using a Pye-Unicam SP1800 double-beam spectrophotometer. Enzyme activity per ml extract was calculated as Δ 320 nm absorbance/min divided by 8.3, which is equivalent to the hydrolysis of 1 µmol of MTX/min at 37°C.
(§2) To determine whether the cloned gene= product in E.coli had the same properties as CPG2 from the pseudomonad, enzyme was purified from E.coli carrying pNM21.

[2] = target: T1, Carboxypeptidase G2 (CPG2) purified from E.coli clone pNM21 (cloned gene from Pseudomonas species strain RS-16) (Pseudomonas sp., UniProt P06621); test: Km determination of purified carboxypeptidase G2 synthesised in E.coli (cloned gene product), methotrexate as substrate; assay type: biochemical, Pseudomonas species strain RS-16 (expressed in E.coli); settings: CPG2 purified from E.coli carrying pNM21; read-out: Km vallues using methotrexate as substrate
T1 construct: Amino acids 23 to 415 are the CPG2 structural gene; made in house; host or cells: E. coli W5445 carrying plasmid pNM21
T1 sequence (P06621 23-415): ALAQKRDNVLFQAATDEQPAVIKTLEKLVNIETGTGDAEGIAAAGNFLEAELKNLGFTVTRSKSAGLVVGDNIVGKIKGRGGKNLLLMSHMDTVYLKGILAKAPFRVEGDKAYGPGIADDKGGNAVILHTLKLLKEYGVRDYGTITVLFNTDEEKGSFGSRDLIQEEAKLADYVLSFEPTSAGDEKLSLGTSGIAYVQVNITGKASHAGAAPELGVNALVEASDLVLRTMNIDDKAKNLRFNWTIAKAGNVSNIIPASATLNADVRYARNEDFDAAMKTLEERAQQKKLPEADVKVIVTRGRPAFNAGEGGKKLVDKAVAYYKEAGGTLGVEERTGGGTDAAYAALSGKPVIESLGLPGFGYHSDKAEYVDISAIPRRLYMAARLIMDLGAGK
Procedure: as §1, §2

Carboxypeptidase G2 (CPG2) from Pseudomonas strain RS-16, sequence (P06621 23-415): as above

## CN(Cc1cnc2nc(N)nc(N)c2n1)c1ccc(C(=O)N[C@@H](CCC(=O)O)C(=O)O)cc1 [methotrexate]
[1]
  Km: 8 µM
[2]
  Km: 7.4 µM
